The numbers were not newly measured in US20250325480A1, “Lipid Nanoparticle Compositions and Methods For Formulating Insoluble Drugs” (RESPIRERX PHARMACEUTICALS, INC., priority 2022, published 2025), which cites them from elsewhere.

Assay in data set [1]: not given
This is another data set of the same source.

As to `CCCCCc1cc(O)c2c(c1)OC(C)(C)[C@@H]1CCC(C)=C[C@@H]21` [Dronabinol, (−)-trans-Δ^9-tetrahydrocannabinnol], the “Metabolic breakdown upon first pass through the liver” value (as presently formulated) is reported as “approximately 80%”. The Half-life (in vivo) was 2 to 3 h. The Adverse side effects entry in data set [1] (10 mg dose, Marinol package insert) is “unacceptable adverse side effects”. Besides, in data set [1] (2.5 and 10 mg doses, first 4 hours of 8-hour test period), the OSA alleviating effects entry is on record as “therapeutically equivalent OSA alleviating effects”. For the same compound, in data set [1] (second 4 hours of 8-hour test period), the “Therapeutic effects in OSA” value is given as “only the 10 mg dose produced therapeutic effects”.
